Data taken from article PMC9675574 (JCI Insight, 2022).
“And” between values parts separate entries of the source, which are not always exact repeats. Equal entries are not always repeated. Where two headings read alike, the source gives them in different places.

Tests used:
trypsin = settings: cited from earlier work
[1] = system: cerulein-induced pancreatitis in PRSS1^R122H mice; settings: cited from earlier work
[2] = system: transmembrane serine protease 2; settings: cited from earlier work
[3] = system: spontaneous pancreatitis in T7D23A mice; test: Spontaneous pancreatitis in T7D23A mice, feeding with drug-containing chow; type: in vivo, mouse
Excerpt: (§1) The generation and properties of the T7D23A and T7K24R mice carrying trypsinogen mutations were described recently ([29], [30]). Heterozygous T7D23A and homozygous T7K24R mice were used. Protocols for genotyping have been reported earlier ([29], [30]). C57BL/6N mice were purchased from Charles River Laboratories or produced in our breeding facility from the same stock. Both male and female mice were studied.
(§2) Control mice were given gavage of the vehicle solution (Captisol; see below) or regular chow.
(§3) Captisol (β-cyclodextrin sulfobutyl ethers, sodium salts, lot number NC-04A-180185) was obtained from Cydex Pharmaceuticals (through Thermo Fisher Scientific) and was dissolved in sterile normal saline (3.5 g in 10 mL). […] The mixture was then compressed into pellets using the barrel of a 10 mL plastic syringe and a plunger. The prodrug-containing pellets were allowed to dry at 24°C for 2 days and stored at 4°C until use.

[4] = Estimation of absorbed dabigatran etexilate; parameters: species or system mouse
[5] = humans; independent of dose, not influenced by food; cited from earlier work
[6] = system: cerulein-induced pancreatitis in T7K24R mice; test: Cerulein-induced pancreatitis in T7K24R mice; type: in vivo, mouse
Procedure: Pancreatitis was induced in T7K24R mice with 8 hourly intraperitoneal injections of the secretagogue peptide cerulein used in a dose of 50 μg/kg. Cerulein (catalog number C9026, MilliporeSigma) was dissolved in sterile normal saline at 10 μg/mL concentration. Mice were sacrificed 1, 24, 48, 72, or 96 hours from the first cerulein injection, as indicated, and the pancreas and blood were harvested. Details of histological analysis and measurement of plasma amylase (4 μL assayed) were reported previously ([29]–[31]).
as §2, §3

[7] = system: spontaneous pancreatitis in T7D23A mice; test: Spontaneous pancreatitis in T7D23A mice, oral gavage; type: in vivo, mouse
Excerpt: as §1, §2, §3

T7D23A and T7K24R mice = test: Safety observations in treated mice; type: in vivo, mouse
Excerpt: as §2

[8] = single oral gavage 200 mg/kg 30 minutes after last cerulein injection, 96 hours
[9] = single oral gavage 200 mg/kg, 15 treated mice
[10] = gavage 1 × 100, 2 × 100 or 1 × 200 mg/kg daily for 2 weeks

Compound: COc1ccc(-n2nc(C(N)=O)c3c2C(=O)N(c2ccc(N4CCCCC4=O)cc2)CC3)cc1 [apixaban]
- trypsin-inhibitory activity (trypsin): devoid of trypsin-inhibitory activity
- therapeutic activity ([1]; 100 mg/kg alone): no therapeutic activity whatsoever
- therapeutic activity ([1]; apixaban 100 mg/kg combined with camostat 200 mg/kg): highly effective

Compound: CN(C)C(=O)COC(=O)Cc1ccc(OC(=O)c2ccc(NC(=N)N)cc2)cc1 [camostat]
- therapeutic activity ([1]; 200 mg/kg alone): only a partial effect
- inhibition of transmembrane serine protease 2 [2]: strong inhibitors

Compound: CCCCCCOC(=O)NC(=N)c1ccc(NCc2nc3cc(C(=O)N(CCC(=O)OCC)c4ccccn4)ccc3n2C)cc1 [dabigatran etexilate]
- effect on cerulein-induced pancreatitis ([1]; PRSS1^R122H transgenic mice): markedly improved
- effect on spontaneous pancreatitis ([3]; chow with 10 mg/g for 1 week): did not prevent or improve
- intact acini, pancreatitis severity ([3]; chow with 10 mg/g for 1 week): no effect
- plasma amylase activities ([3]; chow with 10 mg/g for 1 week, all 4 groups): comparable
- pancreas weight, treated versus untreated ([3]; chow with 10 mg/g for 1 week, both strains (C57BL/6N and T7D23A)): small increase
- body weight gain ([3]; chow with 10 mg/g, 21 to 28 days of age, C57BL/6N and T7D23A): gained weight similarly
- daily dose of absorbed dabigatran etexilate ([4]; 10 mg prodrug/g chow, about 4 g chow per 24 hours, estimated): 2.6 mg
- systemically absorbed single dose ([4]; 100 mg/kg intragastric gavage, 20 g mouse, estimated from human bioavailability): 0.13 mg
- oral bioavailability [5]: around 6.5%
- body weight, start versus end of experiment [6, 8]: no change in body weight
- pancreas weight versus vehicle-treated mice with pancreatitis [6, 8]: significantly higher
- share of drug-treated mice with complete protective effect (histology) [6, 9]: ~50%
- share of mice with significant yet incomplete effect (30%–50% normal histology) [6, 9]: about 20%
- plasma amylase activity in a subset of treated mice (4 of 15) ([6]; single oral gavage 200 mg/kg, 4 days after induction): more than 3 fold
- proportion of intact acini versus vehicle-treated group ([6]; single oral gavage 200 mg/kg, histology at 96 hours): significantly higher
- intact acini on pancreas sections, individual mice with elevated plasma amylase ([6]; single oral gavage 200 mg/kg, the 4 mice with elevated amylase, 200 mg/kg): 45% and 13% and 15% and 35%
- intact acini per visual field, treated versus untreated [7, 10]: no appreciable difference
- pancreas weight [7, 10]: did not improve
- plasma amylase levels relative to untreated T7D23A controls [7, 10]: significantly lower
- body weight gain ([7]; gavage 1 × 100, 2 × 100 or 1 × 200 mg/kg daily for 2 weeks, 3 to 5 weeks of age): unaffected by gavage treatment
- effect on spontaneous pancreatitis ([7]; intragastric gavage for 2 weeks): did not ameliorate
- bleeding, morbidity, mortality (T7D23A and T7K24R mice; gavage 100 or 200 mg/kg or chow 10 mg/g): no bleeding, morbidity, or mortality were observed
- hematoxylin-eosin sections of liver, intestine, and kidney (T7D23A and T7K24R mice; mice treated with dabigatran etexilate or vehicle): no signs of organ damage

Compound: N=C(N)c1ccc2cc(OC(=O)c3ccc(N=C(N)N)cc3)ccc2c1 [nafamostat]
- inhibition of transmembrane serine protease 2 [2]: strong inhibitors
